Test results taken from patent publication US20090118211A1, “Compositions and Methods for Enhancement of Sexual Function” (priority 2005, published 2009).
Several values for one entry are separate records, joined by “and”; a condition that tells them apart may be missing. Identical values can stand only once. Like-named read-outs stand apart in the source and are kept apart here.

Tests used:
[1] = system: SSRI-induced sexual dysfunction; conditions: in vivo; cited from earlier work
[2] = cited from earlier work; for maximum observed plasma concentration (Cmax): oral administration
[3] = system: premature ejaculation; conditions: cited from earlier work
[4] = system: erectile dysfunction; conditions: oral administration of 50-100 mg; cited from earlier work
[5] = system: erectile dysfunction; assay: Retrospective analysis of clomipramine with or without a commercial PDE5 inhibitor taken as needed: subjectively rated erection; conditions: after 8 weeks, one patient per row
[6] = system: premature ejaculation; assay: Retrospective analysis of clomipramine with or without a commercial PDE5 inhibitor taken as needed: ejaculation time; conditions: rated after 8 weeks, one patient per row

CCCN(CCC)CCc1cccc2c1CC(=O)N2 [ropinrole]
effect on sexual dysfunction induced by citalopram, sertraline, paroxetine, fluoxetine and venlafaxine treatment [1]: effective

CCCc1nc(C)c2c(=O)[nH]c(-c3cc(S(=O)(=O)N4CCN(CC)CC4)ccc3OCC)nn12 [vardenafil]
AUC and Cmax versus dose ([2]; oral dosing, recommended dose range (5-20 mg)): increase in almost direct proportion to the dose

CN[C@H]1CC[C@@H](c2ccc(Cl)c(Cl)c2)c2ccccc21 [Sertraline, sertraline]
effect as ejaculation delaying agent ([3]; 4 hours before sex, primary premature ejaculation versus sildenafil-corrected erectile dysfunction): effective as ejaculation delaying agent only for patients having primary premature ejaculation

CN1CC(=O)N2[C@H](c3ccc4c(c3)OCO4)c3[nH]c4ccccc4c3C[C@@H]2C1=O [tadalafil]
Systemic exposure (AUC) versus dose ([2]; doses from 2.5 mg to 20 mg): increases proportionately
increase in Cmax versus dose ([2]; doses from 2.5 mg to 20 mg): slightly less than proportional
degree of drug accumulation ([2]; once-daily 20 mg dosing): 1.6 fold
time to attain steady-state plasma concentrations ([2]; once-daily 20 mg dosing): ≤ 5 days
maximum observed plasma concentration (Cmax) ([2]; 20 mg): 378 ng/mL

CCCc1nn(C)c2c(=O)[nH]c(-c3cc(S(=O)(=O)N4CCN(C)CC4)ccc3OCC)nc12 [sildenafil]
maximum observed plasma concentration (Cmax) ([2]; 50-100 mg): 18 ng/mL
effect alone for men with premature ejaculation ([3]; PDE5 inhibitor alone): ineffective
subjects studied found to respond well [4]: 82%

CN(C)CCCN1c2ccccc2CCc2ccc(Cl)cc21 [Clomipramine, clomipramine]
time of peak plasma levels after dosage ([2]; much individual variation): 2 to 6 h
time required to reach peak plasma concentration, longer than that required by tadalafil ([2]; relative to tadalafil): about 2 hours
time required to reach peak plasma concentration, longer than that required by either vardenafil or sildenafil ([2]; relative to vardenafil or sildenafil): 3 h
Erection (% satisfaction) after (%) ([5]; Clomipramine 10 mg alone): 100%
Erection (% satisfaction) after (%) ([5]; Clomipramine 15 mg alone, NC denotes no complain): 100%
Erection (% satisfaction) after (%) ([5]; Clomipramine 25 mg alone, NC denotes no complain): 100%
Ejaculation Time (minutes) after treatment ([6]; Clomipramine 10 mg alone): 10 min
Ejaculation Time (minutes) after treatment ([6]; Clomipramine 15 mg alone): 10 min and 4 min and 20 min
Ejaculation Time (minutes) after treatment ([6]; Clomipramine 25 mg alone): 7 minutes (2×) and 20 minutes (2×) and 15 minutes
Ejaculation Time (minutes) after treatment ([6]; Clomipramine 30 mg alone): 10 minutes (3×) and 15 minutes (2×) and 8 minutes and 4 minutes (2×) and 5 minutes and 20 minutes and 0.25 minutes and 3 minutes
time to climax in premature ejaculators ([3]; 50 mg): more than 8 minutes
latency to ejaculation ([3]; 25 milligrams 12 to 24 hours before anticipated sexual activity, from about 1.5 to 2 minutes): about 8 minutes
effect alone in men with premature ejaculations who were also impotent ([3]; clomipramine alone): ineffective
